Data taken from US8796259B2, “N3-heteroaryl substituted triazoles and N5-heteroaryl substituted triazoles useful as axl inhibitors” (Rigel Pharmaceuticals, Inc., priority 2006, dated 2014).

These molecules were tested against T1, Axl (Homo sapiens, UniProt P30530) (assay: Phospho-Akt in-cell Western assay (inhibition of Axl activity, Axl-antibody cross-linking stimulation)). Conditions: Hela cells, phospho-Akt readout; compounds of formula (Ia), Table 1.
T1 construct: endogenous in cells; host or cells: HeLa cells
T1 sequence (P30530 26-894): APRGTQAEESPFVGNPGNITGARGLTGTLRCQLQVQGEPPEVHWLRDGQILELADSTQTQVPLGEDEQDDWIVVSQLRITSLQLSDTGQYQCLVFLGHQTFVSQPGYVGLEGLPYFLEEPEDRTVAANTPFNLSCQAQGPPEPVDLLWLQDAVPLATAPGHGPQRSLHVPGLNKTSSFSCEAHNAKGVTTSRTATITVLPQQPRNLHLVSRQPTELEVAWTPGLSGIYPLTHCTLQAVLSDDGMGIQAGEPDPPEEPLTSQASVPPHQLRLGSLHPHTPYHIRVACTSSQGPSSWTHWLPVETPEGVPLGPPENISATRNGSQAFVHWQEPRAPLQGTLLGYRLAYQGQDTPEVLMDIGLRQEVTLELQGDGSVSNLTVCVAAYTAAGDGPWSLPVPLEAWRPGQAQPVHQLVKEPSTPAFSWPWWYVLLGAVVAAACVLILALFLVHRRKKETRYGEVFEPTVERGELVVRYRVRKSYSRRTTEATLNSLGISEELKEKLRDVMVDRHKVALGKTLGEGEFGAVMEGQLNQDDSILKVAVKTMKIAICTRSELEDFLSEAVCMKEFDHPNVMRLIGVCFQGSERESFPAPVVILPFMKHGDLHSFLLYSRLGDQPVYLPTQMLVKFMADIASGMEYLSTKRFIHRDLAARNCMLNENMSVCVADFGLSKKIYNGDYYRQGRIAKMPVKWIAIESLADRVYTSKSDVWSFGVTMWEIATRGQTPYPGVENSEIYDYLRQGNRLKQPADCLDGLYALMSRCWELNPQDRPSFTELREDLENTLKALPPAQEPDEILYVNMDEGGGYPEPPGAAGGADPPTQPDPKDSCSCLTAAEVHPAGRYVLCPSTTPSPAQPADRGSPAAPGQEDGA
Format: cell-based
Summary of the method: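 HeLa cells on poly-L-lysine were starved 24 h in 0.5% FCS/DMEM with 500 ng/mL Axl/Fc, pre-treated with compound 1 h at 37 °C, then stimulated 5 min by cross-linked mouse anti-Axl/biotin anti-mouse antibody clusters. After formaldehyde fixation, phospho-Akt was detected by rabbit anti-phospho-Akt and HRP secondary with chemiluminescence read-out.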

Row | Structure (SMILES) | IC50
1 | Cc1csc2c(-n3nc(Nc4ccc(N5CCN(CC6CC6)[C@@H](C)C5)nc4)nc3N)ncnc12 [compound 116, 1-(7-methyl-thieno[3,2-d]pyrimidin-4-yl)-N^3-(2-(4-cyclo-propylmethyl-3-(S)-methyl-piperazin-1-yl)pyridin-5-yl)-1H-1,2,4-triazole-3,5-diamine] | < 1000 nM
2 | Cc1csc2c(-n3nc(Nc4ccc(N5CCN(CC6CC6)[C@@H](C)C5)nc4)nc3N)nc(Cl)nc12 [compound 117, 1-(2-chloro-7-methylthieno [3,2-d]pyrimidin-4-yl)-N^3-(2-(4-cyclopropyl-methyl-3-(S)-methyl-piperazin-1-yl)pyridin-5-yl)-1H-1,2,4-triazoie-3,5-diamine] | < 1000 nM
3 | Cc1csc2c(-n3nc(Nc4ccc(Br)nc4)nc3N)ncnc12 [compound 118, 1-(7-methylthieno [3,2-d]pyrimidin-4-yl)-N^3-(2-bromopyridin-5-yl)-1H-1,2,4-triazole-3,5-diamine] | > 20000 nM
4 | Cc1csc2c(-n3nc(Nc4ccc(C=CCN5CCCC5)nc4)nc3N)ncnc12 [compound 119, 1-(7-methylthieno [3,2-d]pyrimidin-4-yl)-N^3-(2-(3-(pyrrolidin-1-yl)propen-1-yl)pyridin-5-yl)-1H-1,2,4-triazole-3,5-diamine] | < 1000 nM
5 | Cc1csc2c(-n3nc(Nc4ccc(/C=C/CN5CCC(N(C)C)C5)nc4)nc3N)ncnc12 (stereo not drawn) [compound 120, 1-(7-methylthieno [3,2-d]pyrimidin-4-yl)-N^3-(2-(3-(3-dimethyl-amino-pyrrolidin-1-yl)propen-1-yl)pyridin-5-yl)-1H-1,2,4-triazole-3,5-diamine] | < 1000 nM
6 | CCN(CC)C1CCN(C/C=C/c2ccc(Nc3nc(N)n(-c4ncnc5c(C)csc45)n3)cn2)C1 (stereo not drawn) [compound 121, 1-(7-methylthieno [3,2-d]pyrimidin-4-yl)-N^3-(2-(3-(3-diethyl-amino-pyrrolidin-1-yl)propen-1-yl)pyridin-5-yl)-1H-1,2,4-triazole-3,5-diamine] | < 1000 nM
7 | Cc1csc2c(-n3nc(Nc4ccc(C=CCN5CCC(N6CCCC6)CC5)nc4)nc3N)ncnc12 [compound 122, 1-(7-methylthieno [3,2-d]pyrimidin-4-yl)-N^3-(2-(3-(4-pyrrolidin-1-yl-piperidin-1-yl)propen-1-yl)pyridin-5-yl)-1H-1,2,4-triazole-3,5-diamine] | < 1000 nM
8 | Cc1csc2c(-n3nc(Nc4ccc(C=CCN5CCN(C)CC5)nc4)nc3N)ncnc12 [compound 123, 1-(7-methylthieno [3,2-d]pyrimidin-4-yl)-N^3-(2-(3-(4-methyl-piperazin-1-yl)propen-1-yl)pyridin-5-yl)-1H-1,2,4-triazole-3,5-diamine] | < 1000 nM
9 | Cc1csc2c(-n3nc(Nc4ccc(C=CCN5CCN(C(C)C)CC5)nc4)nc3N)ncnc12 [compound 124, 1-(7-methylthieno [3,2-d]pyrimidin-4-yl)-N^3-(2-(3-(4-isopropyl-piperazin-1-yl)propen-1-yl)pyridin-5-yl)-1H-1,2,4-triazole-3,5-diamine] | < 1000 nM
10 | Cc1csc2c(-n3nc(Nc4ccc(C=CCN5CCN(C6CCCC6)CC5)nc4)nc3N)ncnc12 [compound 125, 1-(7-methylthieno [3,2-d]pyrimidin-4-yl)-N^3-(2-(3-(4-cyclopentyl-piperazin-1-yl)propen-1-yl)pyridin-5-yl)-1H-1,2,4-triazole-3,5-diamine] | < 1000 nM
11 | Cc1csc2c(-n3nc(Nc4ccc(C=CCN5CCOCC5)nc4)nc3N)ncnc12 [compound 126, 1-(7-methylthieno [3,2-d]pyrimidin-4-yl)-N^3-(2-(3-(morpholin-4-yl)propen-1-yl)pyridin-5-yl)-1H-1,2,4-triazole-3,5-diamine] | < 1000 nM
12 | Cc1csc2c(-n3nc(Nc4ccc(C=CCN5CCCCC5)nc4)nc3N)ncnc12 [compound 127, 1-(7-methylthieno [3,2-d]pyrimidin-4-yl)-N^3-(2-(3-(piperidin-1-yl)propen-1-yl)pyridin-5-yl)-1H-1,2,4-triazole-3,5-diamine] | < 1000 nM
